The source made the active and inactive calls.
How the values were obtained:
Ephrin type-A receptor 4 = Ephrin type-A receptor 4 (Mus musculus, UniProt Q03137); test: inhibitors of EphA4 binding to KYL peptide, primary screen, biochemical, colorimetric, mouse EphA4 (AID 689); type: functional
[1] = biological target: Induced myeloid leukemia cell differentiation protein Mcl-1 (Homo sapiens, UniProt Q07820); type: functional
[2] = biological target: Eukaryotic translation initiation factor 4E (Mus musculus, UniProt P63073); test: eIF4E–eIF4G protein interaction inhibitors, dose response, biochemical, TR-FRET (AID 855); type: functional;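 also: potency for disrupting eIF4E binding to eIF4GI seen as loss of FRET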
Caspase-6 = biological target: T1, Caspase-6 (Homo sapiens, UniProt P55212); test: human caspase-6 inhibitors, dose response, biochemical, VEID-R110 fluorescence, cherry-pick (AID 720632)
T1 sequence (P55212 whole entry): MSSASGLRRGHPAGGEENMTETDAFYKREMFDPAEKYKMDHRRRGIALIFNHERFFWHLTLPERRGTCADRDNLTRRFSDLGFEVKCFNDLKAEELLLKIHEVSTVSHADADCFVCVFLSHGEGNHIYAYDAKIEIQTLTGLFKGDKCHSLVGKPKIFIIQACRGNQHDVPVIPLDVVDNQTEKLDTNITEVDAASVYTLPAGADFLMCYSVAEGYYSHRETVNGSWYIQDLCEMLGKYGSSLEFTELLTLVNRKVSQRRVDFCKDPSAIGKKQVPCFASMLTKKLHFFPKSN

Caspase-9 = Caspase-9 (Homo sapiens, UniProt P55211); test: caspase-9 enzyme inhibition, dose response, selectivity assay for caspase-6 inhibitor project, biochemical, fluorescence, plate reader, cherry-picked samples (AID 743293)
Caspase-7 = Caspase-7 (Homo sapiens, UniProt P55210); test: human caspase-7 inhibitors, dose response, selectivity assay for caspase-6 inhibitor project, biochemical, DEVD-R110 fluorescence, cherry-pick (AID 743295)
Caspase-8 = Caspase-8 (Homo sapiens, UniProt Q14790); test: caspase-8 inhibition counter-screen, dose response, selectivity assay for caspase-6 inhibitor project, biochemical, Z-IETD-R110 fluorescence, cherry-picked samples (AID 743294)
Nonstructural protein 1 = Nonstructural protein 1 (Influenza A virus, UniProt Q194T2); type: functional, Influenza A virus (A/California/07/2009(H1N1))
[3] = biological target: T2, Corticotropin-releasing factor receptor 2/Corticotropin-releasing factor-binding protein (Homo sapiens, UniProt P24387+Q13324); test: Dose Response confirmation of uHTS hits for small molecule antagonists of the CRF-binding protein and CRF-R2 receptor complex.; type: functional; conditions: read-out: IC50_Mean
T2 sequence (Q13324 whole entry): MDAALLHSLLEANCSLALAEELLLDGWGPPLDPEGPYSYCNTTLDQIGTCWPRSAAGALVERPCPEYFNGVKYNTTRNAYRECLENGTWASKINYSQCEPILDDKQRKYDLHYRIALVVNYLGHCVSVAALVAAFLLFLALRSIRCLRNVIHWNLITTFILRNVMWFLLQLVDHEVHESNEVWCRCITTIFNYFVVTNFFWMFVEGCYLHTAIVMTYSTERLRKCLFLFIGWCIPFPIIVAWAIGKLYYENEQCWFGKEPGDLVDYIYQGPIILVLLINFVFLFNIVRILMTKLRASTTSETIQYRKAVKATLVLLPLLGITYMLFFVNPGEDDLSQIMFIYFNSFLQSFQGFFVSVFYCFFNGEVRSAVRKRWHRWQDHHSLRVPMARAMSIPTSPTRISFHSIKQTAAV
T2 sequence (P24387 whole entry): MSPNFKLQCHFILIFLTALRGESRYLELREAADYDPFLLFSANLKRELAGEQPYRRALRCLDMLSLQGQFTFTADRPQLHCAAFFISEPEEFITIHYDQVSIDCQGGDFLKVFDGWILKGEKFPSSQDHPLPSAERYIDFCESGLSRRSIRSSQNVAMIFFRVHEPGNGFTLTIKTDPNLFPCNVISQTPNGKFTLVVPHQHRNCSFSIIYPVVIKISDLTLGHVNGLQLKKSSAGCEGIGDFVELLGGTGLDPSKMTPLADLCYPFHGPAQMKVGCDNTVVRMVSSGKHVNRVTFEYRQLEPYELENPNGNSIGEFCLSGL

[4] = biological target: T2, Corticotropin-releasing factor receptor 2/Corticotropin-releasing factor-binding protein; test: activators of CRF receptor 2 with binding protein – uHTS hits, confirmation (AID 602473); type: functional; conditions: read-out: EC50_Mean
[5] = HeLa cell cytotoxicity, dose response, cytotoxicity control for MgcRacGAP inhibitor project (AID 624300); type: functional
[6] = biological target: T3, Rac GTPase-activating protein 1 (Homo sapiens, UniProt Q9H0H5); test: MgcRacGAP GTPase-activating activity inhibitors, confirmation, biochemical, ADP Hunter fluorescence, primary and confirmatory (AID 624330); type: functional
T3 sequence (Q9H0H5 whole entry): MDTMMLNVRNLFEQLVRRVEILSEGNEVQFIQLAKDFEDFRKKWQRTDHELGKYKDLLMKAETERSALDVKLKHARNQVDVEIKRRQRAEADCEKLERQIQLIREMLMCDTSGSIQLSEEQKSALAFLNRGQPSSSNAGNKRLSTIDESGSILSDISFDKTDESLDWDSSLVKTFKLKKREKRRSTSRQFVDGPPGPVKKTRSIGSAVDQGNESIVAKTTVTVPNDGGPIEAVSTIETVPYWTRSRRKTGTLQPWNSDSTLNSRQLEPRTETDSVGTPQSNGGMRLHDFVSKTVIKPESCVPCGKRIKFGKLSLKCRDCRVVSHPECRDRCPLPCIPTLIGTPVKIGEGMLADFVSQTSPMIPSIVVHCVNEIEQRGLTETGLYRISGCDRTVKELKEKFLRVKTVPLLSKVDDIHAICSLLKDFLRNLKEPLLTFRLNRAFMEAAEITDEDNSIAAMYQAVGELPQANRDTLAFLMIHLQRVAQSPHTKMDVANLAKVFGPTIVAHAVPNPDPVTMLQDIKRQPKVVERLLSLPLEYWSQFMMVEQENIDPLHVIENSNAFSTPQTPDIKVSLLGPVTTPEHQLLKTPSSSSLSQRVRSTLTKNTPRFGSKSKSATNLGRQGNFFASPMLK

[7] = biological target: T4, COUP transcription factor 2 (Homo sapiens, UniProt P24468); test: Luminescence-based cell-based high throughput dose response assay to identify inhibitors of COUP-TFII (NR2F2).; type: functional;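 also: HEK293 cells transiently cotransfected with COUP-TFII expression vector and reporter; luciferase reporter luminescence driven by COUP-TFII from the pX2-168 reporter plasmid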
T4 sequence (P24468 whole entry): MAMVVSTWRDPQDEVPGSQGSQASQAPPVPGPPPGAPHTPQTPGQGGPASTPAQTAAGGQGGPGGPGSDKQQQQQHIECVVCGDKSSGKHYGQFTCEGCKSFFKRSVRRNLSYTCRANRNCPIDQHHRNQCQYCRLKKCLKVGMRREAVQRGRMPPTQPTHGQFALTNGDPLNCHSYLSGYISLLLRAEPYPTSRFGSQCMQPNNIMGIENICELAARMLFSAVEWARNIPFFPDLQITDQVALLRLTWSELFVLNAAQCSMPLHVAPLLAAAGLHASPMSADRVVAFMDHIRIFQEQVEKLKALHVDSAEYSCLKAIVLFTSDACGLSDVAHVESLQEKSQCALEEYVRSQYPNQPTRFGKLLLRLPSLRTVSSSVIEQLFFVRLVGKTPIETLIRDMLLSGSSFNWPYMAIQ

[8] = biological target: T5, Histone-lysine N-methyltransferase NSD2 (Homo sapiens, UniProt O96028); type: biochemical
T5 sequence (O96028 whole entry): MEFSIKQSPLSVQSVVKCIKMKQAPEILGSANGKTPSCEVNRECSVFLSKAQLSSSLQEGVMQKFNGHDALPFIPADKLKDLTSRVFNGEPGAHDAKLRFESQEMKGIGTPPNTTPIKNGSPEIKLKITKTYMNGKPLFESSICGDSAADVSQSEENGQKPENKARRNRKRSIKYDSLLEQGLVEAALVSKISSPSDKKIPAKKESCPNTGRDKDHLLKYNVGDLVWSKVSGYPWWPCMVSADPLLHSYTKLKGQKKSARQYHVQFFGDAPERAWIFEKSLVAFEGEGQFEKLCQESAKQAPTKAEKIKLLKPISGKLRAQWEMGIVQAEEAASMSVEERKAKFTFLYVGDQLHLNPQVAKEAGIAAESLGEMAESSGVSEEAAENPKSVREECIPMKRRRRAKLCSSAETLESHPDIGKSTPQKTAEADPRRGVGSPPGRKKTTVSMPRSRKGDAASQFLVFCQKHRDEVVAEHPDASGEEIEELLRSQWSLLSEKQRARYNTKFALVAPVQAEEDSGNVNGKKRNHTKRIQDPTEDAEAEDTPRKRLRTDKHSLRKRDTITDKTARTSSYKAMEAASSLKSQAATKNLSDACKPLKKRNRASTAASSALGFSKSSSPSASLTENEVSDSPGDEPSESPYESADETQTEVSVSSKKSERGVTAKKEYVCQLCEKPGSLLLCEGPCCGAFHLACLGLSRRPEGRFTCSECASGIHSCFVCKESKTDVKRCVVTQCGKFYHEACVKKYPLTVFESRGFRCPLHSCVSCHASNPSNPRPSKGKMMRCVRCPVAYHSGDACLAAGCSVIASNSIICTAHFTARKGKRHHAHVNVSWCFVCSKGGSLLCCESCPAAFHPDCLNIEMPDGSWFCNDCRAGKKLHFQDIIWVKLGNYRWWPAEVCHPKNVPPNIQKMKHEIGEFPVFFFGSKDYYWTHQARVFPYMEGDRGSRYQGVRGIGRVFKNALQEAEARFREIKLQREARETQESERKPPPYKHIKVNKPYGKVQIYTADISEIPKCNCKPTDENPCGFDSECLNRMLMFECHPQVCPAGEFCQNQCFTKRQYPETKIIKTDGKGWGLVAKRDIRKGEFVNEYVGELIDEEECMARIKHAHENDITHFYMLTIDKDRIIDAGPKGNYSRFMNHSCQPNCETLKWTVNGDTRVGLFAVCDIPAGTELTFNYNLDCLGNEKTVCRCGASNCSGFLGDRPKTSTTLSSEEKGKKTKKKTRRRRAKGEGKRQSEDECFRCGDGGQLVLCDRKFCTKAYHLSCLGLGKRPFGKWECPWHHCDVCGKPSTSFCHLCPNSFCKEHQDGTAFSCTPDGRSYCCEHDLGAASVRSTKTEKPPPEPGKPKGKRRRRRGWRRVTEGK

[9] = THP-1 cell cytotoxicity, dose response, cytotoxicity control for Vif-APOBEC3G degradation inhibitor project, THP-1 cells (AID 1117359); type: functional; conditions: Human immunodeficiency virus 1, THP-1
[10] = biological target: Glutathione-S-transferase (Schistosoma japonicum, UniProt Q26513); test: biotin-GST/anti-GST TR-FRET signal inhibitors, dose response, artefact control for Vif-APOBEC3G degradation inhibitor project, biochemical (AID 1117362); type: functional
[11] = Luminescence-based cell-based high throughput dose response assay to identify activators of the DAF-12 from the parasite S. stercoralis (ssDAF-12).; type: functional
[12] = biological target: Oxysterols receptor LXR-beta (Homo sapiens, UniProt P55055); test: LXR agonists, Gal4 luciferase reporter, dose response, counter-screen for ssDAF-12 agonist project, cell-based, luminescence, HEK293, S. stercoralis campaign (AID 720737); type: functional; conditions: read-out: IC50 (the source's name)
Oxysterols receptor LXR-beta, sequence (P55055 whole entry, the tested form may be a part): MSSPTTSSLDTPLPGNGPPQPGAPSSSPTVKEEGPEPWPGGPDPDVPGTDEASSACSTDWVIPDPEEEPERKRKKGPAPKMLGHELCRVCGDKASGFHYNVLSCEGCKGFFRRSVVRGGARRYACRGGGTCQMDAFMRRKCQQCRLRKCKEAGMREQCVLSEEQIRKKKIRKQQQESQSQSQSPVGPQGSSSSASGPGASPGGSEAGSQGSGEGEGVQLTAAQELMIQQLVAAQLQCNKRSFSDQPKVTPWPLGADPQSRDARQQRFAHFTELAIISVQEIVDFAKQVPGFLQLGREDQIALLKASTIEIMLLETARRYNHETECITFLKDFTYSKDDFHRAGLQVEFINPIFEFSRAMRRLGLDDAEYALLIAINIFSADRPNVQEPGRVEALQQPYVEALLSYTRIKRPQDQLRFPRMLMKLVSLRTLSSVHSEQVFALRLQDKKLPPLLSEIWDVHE

Eukaryotic translation initiation factor 4E, sequence (P63073 whole entry): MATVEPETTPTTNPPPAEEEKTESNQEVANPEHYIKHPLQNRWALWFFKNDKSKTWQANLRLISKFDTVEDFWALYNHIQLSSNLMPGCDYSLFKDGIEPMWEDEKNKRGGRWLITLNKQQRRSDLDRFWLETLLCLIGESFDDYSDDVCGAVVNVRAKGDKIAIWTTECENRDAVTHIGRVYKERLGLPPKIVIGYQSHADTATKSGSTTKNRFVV
Induced myeloid leukemia cell differentiation protein Mcl-1, sequence (Q07820 whole entry): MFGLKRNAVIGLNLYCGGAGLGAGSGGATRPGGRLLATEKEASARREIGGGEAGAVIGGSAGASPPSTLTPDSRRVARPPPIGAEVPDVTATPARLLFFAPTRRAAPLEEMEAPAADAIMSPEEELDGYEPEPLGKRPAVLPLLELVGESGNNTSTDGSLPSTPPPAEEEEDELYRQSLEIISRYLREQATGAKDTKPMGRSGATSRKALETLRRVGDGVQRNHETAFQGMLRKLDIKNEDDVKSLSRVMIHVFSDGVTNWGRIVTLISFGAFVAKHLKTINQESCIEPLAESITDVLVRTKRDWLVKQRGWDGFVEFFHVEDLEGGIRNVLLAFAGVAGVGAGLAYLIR
Caspase-8, sequence (Q14790 217-374 limits assumed): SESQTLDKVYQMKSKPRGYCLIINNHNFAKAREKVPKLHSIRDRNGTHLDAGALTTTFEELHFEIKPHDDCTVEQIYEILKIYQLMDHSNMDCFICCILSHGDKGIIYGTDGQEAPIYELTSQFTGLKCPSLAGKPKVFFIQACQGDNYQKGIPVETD
Caspase-8, sequence (Q14790 385-479 limits assumed): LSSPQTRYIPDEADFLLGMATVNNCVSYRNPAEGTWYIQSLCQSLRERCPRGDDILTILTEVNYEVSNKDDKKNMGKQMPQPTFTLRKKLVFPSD
Nonstructural protein 1, sequence (Q194T2 whole entry): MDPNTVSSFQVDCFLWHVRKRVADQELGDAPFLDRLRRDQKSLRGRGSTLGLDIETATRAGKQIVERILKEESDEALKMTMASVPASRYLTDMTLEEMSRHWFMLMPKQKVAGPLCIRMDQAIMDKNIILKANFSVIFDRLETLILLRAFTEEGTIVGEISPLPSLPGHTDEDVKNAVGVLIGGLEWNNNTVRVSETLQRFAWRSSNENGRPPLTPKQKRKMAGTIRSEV
Caspase-7, sequence (P55210 24-198 limits assumed): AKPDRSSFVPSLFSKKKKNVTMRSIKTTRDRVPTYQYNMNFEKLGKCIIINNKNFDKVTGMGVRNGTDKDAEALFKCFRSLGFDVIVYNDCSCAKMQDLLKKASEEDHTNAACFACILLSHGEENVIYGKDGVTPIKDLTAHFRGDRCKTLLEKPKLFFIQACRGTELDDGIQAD
Caspase-7, sequence (P55210 207-303 limits assumed): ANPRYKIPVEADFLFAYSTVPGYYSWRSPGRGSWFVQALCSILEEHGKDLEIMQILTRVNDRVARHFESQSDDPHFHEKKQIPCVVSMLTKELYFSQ
Caspase-9, sequence (P55211 1-315 limits assumed): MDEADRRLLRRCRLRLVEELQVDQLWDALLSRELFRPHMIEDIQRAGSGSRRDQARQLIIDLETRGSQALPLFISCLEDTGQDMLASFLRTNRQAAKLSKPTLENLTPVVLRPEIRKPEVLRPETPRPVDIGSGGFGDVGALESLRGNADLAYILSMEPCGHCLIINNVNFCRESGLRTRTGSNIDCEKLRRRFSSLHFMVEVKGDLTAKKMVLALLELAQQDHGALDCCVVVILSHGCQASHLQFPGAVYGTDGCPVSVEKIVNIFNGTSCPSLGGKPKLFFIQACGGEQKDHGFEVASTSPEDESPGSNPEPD
Caspase-9, sequence (P55211 331-416 limits assumed): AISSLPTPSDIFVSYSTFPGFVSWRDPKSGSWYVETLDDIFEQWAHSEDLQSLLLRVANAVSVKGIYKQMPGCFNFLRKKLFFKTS
Ephrin type-A receptor 4, sequence (Q03137 whole entry): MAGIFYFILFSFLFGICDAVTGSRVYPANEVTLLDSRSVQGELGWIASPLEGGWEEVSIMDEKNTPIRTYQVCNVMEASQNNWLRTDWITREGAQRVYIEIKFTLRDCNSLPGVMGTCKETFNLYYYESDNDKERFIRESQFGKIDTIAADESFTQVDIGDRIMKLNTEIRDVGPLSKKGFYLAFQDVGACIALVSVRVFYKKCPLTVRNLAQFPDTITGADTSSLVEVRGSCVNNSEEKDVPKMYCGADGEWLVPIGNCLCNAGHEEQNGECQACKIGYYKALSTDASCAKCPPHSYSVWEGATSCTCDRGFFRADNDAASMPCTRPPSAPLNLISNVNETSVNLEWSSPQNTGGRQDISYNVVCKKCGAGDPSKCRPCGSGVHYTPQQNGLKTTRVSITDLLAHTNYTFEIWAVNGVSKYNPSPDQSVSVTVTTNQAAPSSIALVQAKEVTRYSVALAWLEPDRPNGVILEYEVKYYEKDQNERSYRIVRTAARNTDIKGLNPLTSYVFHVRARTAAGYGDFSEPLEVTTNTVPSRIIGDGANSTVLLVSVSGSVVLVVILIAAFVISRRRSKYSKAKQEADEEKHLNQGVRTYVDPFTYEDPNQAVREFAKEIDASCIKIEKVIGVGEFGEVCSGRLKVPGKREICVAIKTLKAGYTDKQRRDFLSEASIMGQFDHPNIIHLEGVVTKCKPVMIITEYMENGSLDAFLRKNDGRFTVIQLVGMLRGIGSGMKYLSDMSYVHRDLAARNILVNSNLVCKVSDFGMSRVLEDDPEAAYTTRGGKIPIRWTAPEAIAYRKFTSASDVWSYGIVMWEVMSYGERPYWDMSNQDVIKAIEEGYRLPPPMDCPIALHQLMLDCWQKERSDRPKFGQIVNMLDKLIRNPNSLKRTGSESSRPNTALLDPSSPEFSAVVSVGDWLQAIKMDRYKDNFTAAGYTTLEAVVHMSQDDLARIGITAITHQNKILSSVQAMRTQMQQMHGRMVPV
Glutathione-S-transferase, sequence (Q26513 whole entry): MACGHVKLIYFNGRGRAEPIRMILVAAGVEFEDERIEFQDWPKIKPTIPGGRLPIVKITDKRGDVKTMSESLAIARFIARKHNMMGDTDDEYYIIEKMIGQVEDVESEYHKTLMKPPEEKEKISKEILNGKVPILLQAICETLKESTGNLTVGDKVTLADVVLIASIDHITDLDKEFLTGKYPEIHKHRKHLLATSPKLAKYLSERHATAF

SMILES: COc1ccc(S(=O)(=O)Nc2cc(Sc3nc[nH]n3)c(O)c3ccccc23)cc1
- IC50 (Ephrin type-A receptor 4): 6.77 µM (active)
- IC50 [1]: 7.73 µM (active)
- IC50 [2]: > 64 µM (inactive)
- AC50 (Caspase-6): 0.998 µM (active)
- AC50 (Caspase-9): 31.6 µM (active)
- AC50 (Caspase-7): 8.7 µM (active)
- AC50 (Caspase-8): 22 µM (active)

SMILES: Cc1cc2c(=Cc3ccc(N(C)C)cc3)c3ccccc3n2[n+]1C
- IC50 (Nonstructural protein 1): 20.9 µM (active)
- IC50 [3]: > 47.1 µM (inactive)
- EC50 [4]: > 53 µM (inactive)
- CC50 [5]: 18.5 µM (active)
- IC50 [6]: 45.4 µM (active)
- IC50 [7]: 3.87 µM (active)
- AC50 [8]: 17.6 µM (active)
- CC50 [9]: 1.02 µM (active)
- IC50 [10]: 7.36 µM (active)

SMILES: O=C(NCc1cccs1)c1cccc2c(-c3ccc(F)c(F)c3)coc12
- IC50 [11]: > 67.5 µM (inactive)
- EC50 [12]: > 67.5 µM (inactive)
